Test results: patent publication US20260206756A1, “COMPOUNDS AND METHODS OF TREATING OR PREVENTING A BACTERIAL INFECTION IN A PLANT” (Ohio State Innovation Foundation, priority 2023, published 2026)
≈ marks a conversion by molar mass, not a printed value. Like-named read-outs stand apart in the source and are kept apart here.

Experiments:
[1] = test system: Pss SM1042-14R on pepper seedlings; assay type: in vivo, Pseudomonas syringae pv. syringae; conditions: 200 μM, 7 dpi; for Pseudomonas leaf spot incidence, Curative application / Pseudomonas leaf spot incidence, Preventative application: streptomycin 200 μg/ml, CuSO4 200 μM
[2] = test system: Pss SM1042-14R in infested pepper seeds; assay: Antimicrobial efficacy on pepper seeds artificially infested with Pss; assay type: in vivo, Pseudomonas syringae pv. syringae; conditions: 20 days post infestation, 200 μM, 20 min soak
Protocol: Antimicrobial efficacy of ten selected PCs on pepper seeds artificially infested with Pss SM1042-14R. ‘California Wonder’ pepper seeds were used for artificial infestation with Pss SM1042-14R and PC treatment. Inoculum of Pss SM1042-14R was prepared by growing SM1042-14R in M9 minimal medium overnight as described above. The OD600 was adjusted to 0.1; approximately 1×10^8 CFU/ml. The adjusted inoculum (45 ml of inoculum for 4 g seeds) was transferred to a sterile glass beaker and placed in a Nucerite desiccator (Nalge Sybron, Milwaukee, WI, USA). Seeds were vacuum infiltrated with inoculum at 15 PSI for 5 min. Infested seeds were air-dried in a laminar flow hood at room temperature for 12 h. The dried seeds were transferred to 5 ml sterile tubes and soaked in 1 ml of PCs (200 μM) diluted in sterile water for 20 min. The seeds were air-dried again. Seed aliquots were collected at 1, 3-, 10-, 20-, and 30-days post infestation (dpi, 10 seeds per treatment group per time point). Bacterial populations were estimated by macerating five batches of two seeds per treatment group in 400 μl of 1×PBS in a Whirl Pak bag. […] This was performed twice.

[3] = test system: Pseudomonas syringae pv. syringae (Pss) SM914-13; assay: Dose-response assay (MIC/MBC) in M9 minimal broth; conditions: 48 h
Protocol: (§1) Minimum inhibitory concentration (MIC) and minimum bactericidal concentration (MBC) of the 15 PCs against 10 Pss strains. A dose-response assay was conducted with the 15 PCs identified during the primary screening against 10 Pss strains including the model strain, SM1042-14R. The dose-response assay was conducted as described above with concentrations of PCs ranging from 3.125 to 500 μM. Pss treated with non-amended M9 minimal media, 2% DMSO, or 50 μg/ml kanamycin were used as controls. The plate was incubated in a Sunrise Tecan kinetic microplate reader for 48 h at 28° C. The percentage of inhibition and cell viability were determined as described above.

[4] = test system: Pseudomonas syringae pv. syringae (Pss) SM1038-14; assay: Dose-response assay (MIC/MBC) in M9 minimal broth; conditions: 48 h
Protocol: as §1

[5] = test system: Pseudomonas syringae pv. syringae (Pss) SM51-19; assay: Dose-response assay (MIC/MBC) in M9 minimal broth; conditions: 48 h
Protocol: as §1

[6] = test system: Pseudomonas syringae pv. syringae (Pss) SM156-18; assay: Dose-response assay (MIC/MBC) in M9 minimal broth; conditions: 48 h
Protocol: as §1

[7] = test system: Pseudomonas syringae pv. syringae (Pss) SM1031-14; assay: Dose-response assay (MIC/MBC) in M9 minimal broth; conditions: 48 h
Protocol: (§2) Primary screening of 4,182 SMs was conducted using a high throughput screening method to identify SMs that inhibited the growth of Pss SM1042-14R strain. A fresh bacterial culture of SM1042-14R was grown in M9 minimal broth in a shaking incubator (180 rpm) for 12 h at 28° C. The bacterial culture was normalized to a final optical density (OD600) of 0.05 (c.a., 8.0×10^7 CFU/ml) using a Genesys 20 spectrophotometer (Thermo Scientific, Rockford, IL, USA). In a sterile flat-bottom 96-well plate, 98 μl of the normalized bacterial suspension was challenged with 2 μl of SMs (final concentration of 200 μM). Controls were bacteria challenged with 2% DMSO (positive control; μc+), 50 μg/ml kanamycin (negative control; μc−), or M9 broth alone (blank control). The plate was incubated in a Sunrise Tecan kinetic microplate reader (Tecan Group Ltd., San Jose, CA, USA) for 48 h at 28° C. OD600 was measured every 30 min.
(§3) The plate was agitated for 15 s at 180 rpm before reading the OD600. Growth inhibition of SM1042-14R by the SMs was calculated using the following formula: % of inhibition=(μc+−X)/(μc+−μc−)×100, where μc+ and μc− is the average final OD600 of the positive and negative controls, respectively, and X is the final OD600 of each of the bacterial culture treated with a designated SM. After the 48 h of incubation with the SMs at 28° C., the viability of the bacterial culture was assessed by plating 5 μl of the culture on YDC (Yeast Dextrose Carbonate) agar medium, incubating the plate at 28° C. and monitoring any bacterial colonies on the plate after 48 h.
(§4) A dose-response assay was conducted with the 15 PCs identified during the primary screening against 10 Pss strains including the model strain, SM1042-14R. The dose-response assay was conducted as described above with concentrations of PCs ranging from 3.125 to 500 μM. Pss treated with non-amended M9 minimal media, 2% DMSO, or 50 μg/ml kanamycin were used as controls. The plate was incubated in a Sunrise Tecan kinetic microplate reader for 48 h at 28° C. The percentage of inhibition and cell viability were determined as described above.

[8] = test system: Pseudomonas syringae pv. syringae (Pss) SM109-18; assay: Dose-response assay (MIC/MBC) in M9 minimal broth; conditions: 48 h
Protocol: as §2, §3, §4

[9] = test system: Pseudomonas syringae pv. syringae (Pss) SM155-18; assay: Dose-response assay (MIC/MBC) in M9 minimal broth; conditions: 48 h
Protocol: as §2, §3, §4

[10] = test system: Pseudomonas syringae pv. syringae (Pss) SM1030-14; assay: Dose-response assay (MIC/MBC) in M9 minimal broth; conditions: 48 h
Protocol: as §2, §3, §4

[11] = test system: Pseudomonas syringae pv. syringae (Pss) SM04-2018-04; assay: Dose-response assay (MIC/MBC) in M9 minimal broth; conditions: 48 h
Protocol: as §1

[12] = test system: Pseudomonas syringae pv. syringae (Pss) SM1042-14R; assay: Dose-response assay (MIC/MBC) in M9 minimal broth; conditions: strain SM1042-14R, 48 h, 28° C.
Protocol: as §2, §3, §4

[13] = preventative (1 day prior to inoculation)
[14] = strain SM914-13, M9 broth, 28° C.
[15] = strain SM1038-14, M9 broth, 28° C.
[16] = strain SM51-19, M9 broth, 28° C.
[17] = strain SM156-18, M9 broth, 28° C.
[18] = strain SM1031-14, M9 broth, 28° C.
[19] = strain SM109-18, M9 broth, 28° C.
[20] = strain SM155-18, M9 broth, 28° C.
[21] = strain SM1030-14, M9 broth, 28° C.
[22] = strain SM04-2018-04, M9 broth, 28° C.

| Structure (SMILES) | Pseudomonas leaf spot incidence, Curative application [1] [%] | Pseudomonas leaf spot incidence, Preventative application [1] [%] | MBC ([3]; Pseudomonas syringae) [µM] | MIC ([3]; Pseudomonas syringae) [µM] | MBC ([4]; Pseudomonas syringae) [µM] | MIC ([4]; Pseudomonas syringae) [µM] | MBC ([5]; Pseudomonas syringae) [µM] | MIC ([5]; Pseudomonas syringae) [µM] | MBC ([6]; Pseudomonas syringae) [µM] | MIC ([6]; Pseudomonas syringae) [µM] | MBC ([7]; Pseudomonas syringae) [µM] | MIC ([7]; Pseudomonas syringae) [µM] | MBC ([8]; Pseudomonas syringae) [µM] | MIC ([8]; Pseudomonas syringae) [µM] | MBC ([9]; Pseudomonas syringae) [µM] | MIC ([9]; Pseudomonas syringae) [µM] | MBC ([10]; Pseudomonas syringae) [µM] | MIC ([10]; Pseudomonas syringae) [µM] | MBC ([11]; Pseudomonas syringae) [µM] | MIC ([11]; Pseudomonas syringae) [µM] | other results |
| --- | --- | --- | --- | --- | --- | --- | --- | --- | --- | --- | --- | --- | --- | --- | --- | --- | --- | --- | --- | --- | --- |
| O=S(=O)([O-])[O-].[Cu+2] [CuSO4, copper sulfate] | 57 | 100 | – | – | – | – | – | – | – | – | – | – | – | – | – | – | – | – | – | – | Pss reduction compared to the DMSO group ([1]; curative (1 dpi)): 1.1±0.5 log CFU/g; disease severity (number of lesions per two leaves) ([1]; curative (1 dpi), first trial): 28.1±13.9 lesions; disease severity (number of lesions per two leaves) [1, 13]: 188.4±163.5 lesions; reduction in Pss load compared to the DMSO group [1, 13]: 0.05±0.01 log CFU/g; reduction in Pss load in infested seeds [2]: 1.9±0.5 log CFU/g |
| CCCCCCCCCCCCCCCCn1c[n+](C)c2ccccc21 [PC1] | 86 | 100 | 12.5 | 6.25 | 25 | 12.5 | 12.5 | 6.25 | 12.5 | 6.25 | 12.5 | 6.25 | 12.5 | 6.25 | 12.5 | 6.25 | 25 | 6.25 | 12.5 | 6.25 | – |
| CCN1/C(=C/c2ccc3ccccc3[n+]2CC)C=Cc2ccccc21 [PC2] | 86 | 100 | 25 | 6.25 | 25 | 12.5 | 50 | 6.25 | 25 | 6.25 | 25 | 6.25 | 12.5 | 12.5 | 25 | 12.5 | 50 | 6.25 | 25 | 6.25 | – |
| CCCCCCCCCCCCCCCC[n+]1ccn(CC#N)c1.[Cl-] [PC3] | 86 | 100 | – | – | – | – | – | – | – | – | – | – | – | – | – | – | – | – | – | – | MBC [3, 14]: 25 µM; MIC [3, 14]: 12.5 µM; MBC [4, 15]: 50 µM; MIC [4, 15]: 25 µM; MBC [5, 16]: 50 µM; MIC [5, 16]: 25 µM; MBC [6, 17]: 50 µM; MIC [6, 17]: 25 µM; MBC [7, 18]: 25 µM; MIC [7, 18]: 25 µM; MBC [8, 19]: 25 µM; MIC [8, 19]: 25 µM; MBC [12]: 25 µM; MIC [12]: 25 µM; MBC [9, 20]: 50 µM; MIC [9, 20]: 25 µM; MBC [10, 21]: 50 µM; MIC [10, 21]: 25 µM; MBC [11, 22]: 25 µM; MIC [11, 22]: 12.5 µM |
| CC1CCC(C(C)C)C(OC(=O)Cn2c[n+](CC(=O)OC3CC(C)CCC3C(C)C)c3ccccc32)C1 (centres unmarked) [PC4] | 100 | 100 | 12.5 | 12.5 | 12.5 | 12.5 | 12.5 | 12.5 | 12.5 | 12.5 | 12.5 | 12.5 | 12.5 | 12.5 | 25 | 12.5 | 12.5 | 12.5 | 25 | 12.5 | – |
| CCOc1ccc2nc3cc(N)ccc3c(N)c2c1 [PC7] | – | 86 | – | – | – | – | – | – | – | – | – | – | – | – | – | – | – | – | – | – | MBC [3, 14]: 50 µM (≈ 12.7 µg/mL); MIC [3, 14]: 25 µM (≈ 6.33 µg/mL); MBC [4, 15]: 100 µM (≈ 25.3 µg/mL); MIC [4, 15]: 50 µM (≈ 12.7 µg/mL); MBC [5, 16]: 200 µM (≈ 50.7 µg/mL); MIC [5, 16]: 50 µM (≈ 12.7 µg/mL); MBC [6, 17]: 100 µM (≈ 25.3 µg/mL); MIC [6, 17]: 50 µM (≈ 12.7 µg/mL); MBC [7, 18]: 100 µM (≈ 25.3 µg/mL); MIC [7, 18]: 50 µM (≈ 12.7 µg/mL); MBC [8, 19]: 100 µM (≈ 25.3 µg/mL); MIC [8, 19]: 50 µM (≈ 12.7 µg/mL); MBC [12]: 100 µM (≈ 25.3 µg/mL); MIC [12]: 50 µM (≈ 12.7 µg/mL); MBC [9, 20]: 100 µM (≈ 25.3 µg/mL); MIC [9, 20]: 50 µM (≈ 12.7 µg/mL); MBC [10, 21]: 100 µM (≈ 25.3 µg/mL); MIC [10, 21]: 50 µM (≈ 12.7 µg/mL); MBC [11, 22]: 100 µM (≈ 25.3 µg/mL); MIC [11, 22]: 50 µM (≈ 12.7 µg/mL) |
